Measurements taken from patent US6620911B1, “Anti-cryptococcal peptides” (Arizona Board of Regents, acting for and on behalf of …, priority 1998, dated 2003).
Like-named read-outs stand apart in the source and are kept apart here.

Assays:
[1] = tested on: Cryptococcus neoformans #90112; experiment: Effect of host factors (pH, human serum) on broth macrodilution MICs and MFCs; assay type: cell-based
Method: (§1) Dolastatin 10 and modifications were screened against yeasts by the broth macrodilution assay according to the NCCLS (National Committee for Clinical Laboratory Standards, Reference Method for Broth Dilution Antifungal Susceptibility Testing of Yeasts: Approved Standard M27-A, NCCLS, Wayne, Pa., 1997). Yeasts were suspended and diluted as recommended to yield final inocula ranging from 0.5-2.5×10^3 colony forming units (CFU)/ml. Tests were performed in sterile 12×75 mm plastic tubes containing two-fold dilutions of the peptides in 0.165 M morpholinepropanesulfonic acid (MOPS)-buffered RPMI 1640 medium (pH 7.0). One tube was left drug-free for a turbidity control. Tubes were incubated without agitation at 35° C. (25° C. for C. albidus and C. laurentii). MICs were determined after 72 h for Cryptococcus, and after
(§2) 48 h for other yeast genera. The MIC was defined as the lowest concentration of compound that inhibited all visible growth of the test organism.
(§3) Minimum fungicidal concentrations (MFCs) were determined by subculturing 0.1 ml from each tube with no visible growth in the MIC broth macrodilution series onto drug-free SDA plates. The plates were incubated at 35° C. for 48 h for Cryptococcus (25° C. for C. alhidus and C. laurentii), and 35° C. for 24 h for all other yeast and filamentous fungi.
Broth macrodilution assays were performed with RPMI prepared at pH 5, pH 6 and pH 7, and in RPMI, with and without 50% normal human serum (Lampire Biological Labs). Cryptococcus neoformans #90112 was used in each case.

[2] = mice, intravenous injection; cited from earlier work
[3] = tested on: Cryptococcus albidus; experiment: Disk diffusion susceptibility testing; assay type: cell-based; conditions: ATCC 66030
Method: (§4) Antimicrobial activity was assayed by disk susceptibility tests according to the NCCLS (National Committee for Clinical Laboratory Standards, Performance Standards for Antimicrobial Disk Susceptibility Tests-Sixth Edition: Approved standard M2-A6, NCCLS, Wayne, Pa., 1997). Inocula were adjusted to a density of 0.10 at 625 nm in SDA broth, and spread on SDA plates. Excess moisture was allowed to absorb for 10 min before applying dried disks containing two-fold dilutions of the drugs. Test plates were incubated at 35° C. (25° C. for C. albidus and C. laurentii), and zones of inhibition recorded after 48 h. The minimum inhibitory concentration (MIC) was defined as the lowest concentration of drug resulting in a clear zone of growth inhibition. Disk susceptibility testing of Staphylococcus aureus, Enterococcus faecalis, Escherichia coli and Neisseria gonorrhoeae was also performed.

[4] = tested on: Cryptococcus neoformans; experiment: Disk diffusion susceptibility testing; assay type: cell-based; conditions: ATCC 90112
Method: as §4

[5] = tested on: Cryptococcus laurentii; experiment: Disk diffusion susceptibility testing; assay type: cell-based; conditions: ATCC 66036
Method: as §4

[6] = tested on: Candida glabrata; experiment: Disk diffusion susceptibility testing; assay type: cell-based; conditions: ATCC 90030
Method: as §4

[7] = tested on: Candida albicans; experiment: Disk diffusion susceptibility testing; assay type: cell-based; conditions: ATCC 90028
Method: as §4

[8] = tested on: Aspergillus fumigatus; experiment: Broth macrodilution susceptibility testing of filamentous fungi; assay type: cell-based; conditions: ATCC 96918
Method: (§5) Broth macrodilution susceptibility testing of Aspergillus fumigatus and Rhizopus oligosporus was performed according to a proposed standardized procedure (Espinel-Ingroff et al., Multicenter evaluation of a proposed standardized procedure for antifungal susceptibility testing of filamentous fungi, J Clin Microbiol 1997, 35: 139-43) with slight modification. To induce conidium and sporangiospore formation, A. fumigatus and R. oligosporus were grown on PDA slants at 35° C. for 6 days. Fungal slants were covered with 1 ml of sterile 0.85% NaCl, and suspensions made by gently probing the colonies with the tip of a sterile pasteur pipette. The resulting mixture of hyphal fragments and conidia or sporangiospores was withdrawn, transferred to a sterile clear microfuge tube, and heavy particles were allowed to settle for 10 min. […] Susceptibility to the synthetic peptides was then determined by broth macrodilution assays as described above for the yeast cultures. MICs for the filamentous fungi were read after 24 h.
(§6) Minimum fungicidal concentrations (MFCs) were determined by subculturing 0.1 ml from each tube with no visible growth in the MIC broth macrodilution series onto drug-free SDA plates. […]

[9] = tested on: Rhizopus oligosporus; experiment: as above; assay type: cell-based; conditions: ATCC 22959
Method: as §5, §6

[10] = human plasma, 37° C.; cited from earlier work
[11] = dog plasma, 37° C.; cited from earlier work
[12] = tested on: fluconazole-resistant Cryptococcus neoformans; assay type: cell-based
Source text: Clinical isolates of C. neoformans were obtained from patient cerebrospinal fluid, blood, bone marrow, sputum, bronchial lavage and wound infections at the University of Virginia Medical Center, Strains clinically resistant to fluconazole (See: Jessup, C. J. et al, 1997; Poster #F-88, 37th ICAAC, Toronto, Canada) were provided by the Center for Medical Mycology, Case Western Reserve University. Yeast strains (except for C. albidus and C. laurentii) were maintained by single colony transfer on Sabouraud Dextrose Agar (SDA), pH 5.6 at 35° C. Cryptococcus albidus, C. laurentii and C. uniguttulatus (#66033) were maintained on SDA, pH 6.6 at 25° C., C. uniguttulatus (#34143) and C. ater on Yeast Morphology (YM) agar at 25° C. and filamentous fungi were maintained on Potato Dextrose Agar (PDA) slants at 35° C.
as §1, §2, §3

[13] = mouse plasma, 37° C.; cited from earlier work
[14] = tested on: Cryptococcus neoformans; experiment: Broth macrodilution assay (MIC, MFC), ATCC strains; assay type: cell-based
Method: as §1, §2, §3

[15] = tested on: Cryptococcus ater; experiment: Broth macrodilution assay; assay type: cell-based; conditions: ATCC 14247
Method: as §1, §2, §3

[16] = tested on: Cryptococcus uniguttulatus; experiment: Broth macrodilution assay; assay type: cell-based
Method: as §1, §2, §3

[17] = tested on: Cryptococcus albidus; experiment: Broth macrodilution assay; assay type: cell-based
Method: as §1, §2, §3

[18] = tested on: Cryptococcus laurentii; experiment: Broth macrodilution assay; assay type: cell-based
Method: as §1, §2, §3

[19] = tested on: Rhodotorula mucilaginosa; experiment: Broth macrodilution assay; assay type: cell-based; conditions: ATCC 9449
Method: as §1, §2, §3

[20] = tested on: Candida lusitaniae; experiment: Broth macrodilution assay; assay type: cell-based; conditions: ATCC 42720
Method: as §1, §2, §3

[21] = tested on: Candida glabrata; experiment: Broth macrodilution assay; assay type: cell-based; conditions: ATCC 90030
Method: as §1, §2, §3

[22] = tested on: Candida albicans; experiment: Broth macrodilution assay; assay type: cell-based; conditions: ATCC 90028
Method: as §1, §2, §3

[23] = tested on: Candida parapsilosis; experiment: Broth macrodilution assay; assay type: cell-based; conditions: ATCC 22019
Method: as §1, §2, §3

[24] = cited from earlier work

CC[C@H](C)[C@@H]([C@@H](CC(=O)N1CCC[C@H]1[C@H](OC)[C@@H](C)C(=O)N[C@@H](Cc1ccccc1)c1nccs1)OC)N(C)C(=O)[C@@H](NC(=O)[C@H](C(C)C)N(C)C)C(C)C [1a, dolastatin 10]
minimal toxicity: toxicity in patients with advanced solid tumors ([24]; doses up to 200 μg/m^2) | toxicity in human cancer clinical trials ([24]; doses up to 455 μg/m^2)
25-50 μg/disk: MIC [4]
0.0975 µg/mL: MFC ([12]; strain 94-2406)
at least 24 h: stable in plasma [10] | stable in plasma [11] | stable in plasma [13]
6.25 µg/mL: MIC ([1]; RPMI pH 6) | MFC ([14]; ATCC 14116)
5.6 h: estimated elimination half-life [2]
>100 μg/disk: MIC [3] | MIC [5] | MIC [6] | MIC [7]
25 µg/mL: MFC ([1]; RPMI pH 6)
0.0487 µg/mL: MIC ([12]; strain 94-2406)
0.39 µg/mL: MFC ([12]; strain 94-2483)
0.78 µg/mL: MIC ([1]; 50% human serum) | MIC ([1]; RPMI pH 7) | MIC ([1]; no serum) | MIC ([12]; strain 94-2011) | MIC ([12]; strain 95-2792) | MIC ([14]; ATCC 32045) | MIC ([14]; ATCC 66031) | MIC ([14]; ATCC 90112)
0.195 µg/mL: MIC ([12]; strain 94-2483)
1.56 µg/mL: MFC ([1]; 50% human serum) | MFC ([1]; RPMI pH 7) | MFC ([1]; no serum) | MFC ([12]; strain 94-2011) | MFC ([14]; ATCC 32045) | MFC ([14]; ATCC 66031) | MFC ([14]; ATCC 90112)
3.12 µg/mL: MFC ([12]; strain 95-2792) | MIC ([14]; ATCC 14116)
>50 µg/mL: MFC ([1]; RPMI pH 5) | MIC ([1]; RPMI pH 5) | MIC [8] | MIC [9] | MIC [15] | MIC ([16]; ATCC 34143) | MIC ([16]; ATCC 66033) | MIC ([17]; ATCC 10666) | MIC ([17]; ATCC 34140) | MIC ([17]; ATCC 66030) | MIC ([18]; ATCC 18803) | MIC ([18]; ATCC 34142) | MIC ([18]; ATCC 66036) | MIC [19] | MIC [20] | MFC [21] | MIC [21] | MIC [22] | MIC [23]
>25 µg/mL: MFC [22]
